Experimental data taken from article PMC10121968, “Fosgonimeton, a Novel Positive Modulator of the HGF/MET System, Promotes Neurotrophic and Procognitive Effects in Models of Dementia” (Neurotherapeutics, 2022).
Non-standard residues stand in square brackets, D forms with d. Residues, ends and D or L forms follow the SMILES beside them. *: point of attachment. Hexanoyl = CCCCCC(=O)*; Ahx = NCCCCCC(=O)O

Tests used:
ERK (Thr202/Tyr204) = test: Phospho-ERK HTRF assay in HEK293 cells; type: cell-based, human; conditions: HEK293, subthreshold HGF 0.1 ng/mL + fosgo-AM 1 µM, vs HGF alone
From the text: To determine phosphoactivation status of the intracellular signaling molecules ERK (Thr202/Tyr204) or AKT (Ser473), we used homogenous time-resolved fluorescence (HTRF) kits to assess phosphorylation status based on the energy transfer between donor and acceptor phospho-ERK (pERK) or phospho-AKT (pAKT) antibodies. HTRF kit processing for pERK (Phospho-ERK [Thr202/Tyr204] cellular Advanced kit, #64AERPEG, Cisbio, Codolet, France) and pAKT (Phospho-AKT [Ser473] cellular kit, #64AKSPEG, Cisbio, Codolet, France) were carried out per manufacturer instructions. In brief, HEK293 cells were grown at 37 °C, 5% CO2 in DMEM + 10% FBS until approximately 80% confluent. Cells were seeded in polystyrene-treated 96-well cell culture plates at approximately 50,000 cells/well and cultured overnight in 50 µL serum-free growth media. […] Fluorescence emission at 2 different wavelengths (665 nm and 620 nm) were measured on an Envision plate reader (PerkinElmer, Waltham, Massachusetts), and the HTRF ratio of the acceptor and donor emission signals for each well was calculated as follows: HTRF ratio = (665 nm/620 nm) × 10,000. […] Data were assessed for normality (Shapiro–Wilk) and homoscedasticity (Brown-Forsythe). Statistical significance was determined by one-way analysis of variance (ANOVA) with Tukey’s multiple comparison post-test. […]

[1] = system: rat scopolamine amnesia model; test: Scopolamine Morris water maze study; type: in vivo; conditions: 1 mg/kg SC
Protocol: Animals were maintained in accordance with the National Institute of Health Guide for the Care and Use of Laboratory Animals. Rats (14-week-old male Sprague Dawley) from Simonsen laboratories (Gilroy, CA) were used in the scopolamine Morris water maze study. This study was performed at Washington State University and procedures were approved by the Washington State University Institutional Animal Care and Use Committee.
Animals were anesthetized with ketamine hydrochloride plus xylazine (70 mg/kg and 7 mg/kg intraperitoneally, respectively). An intracerebroventricular (ICV) guide cannula (PE-60; Clay Adams, Parsippany, NY) was stereotaxically positioned (model 900; David Kopf Instruments, Tujunga, CA) in the right hemisphere of the brain 1.0 mm posterior and 1.5 mm lateral to the bregma. The guide cannula measured 1.5 cm in length with a heat bulge at 2.5 mm from the beveled tip to control insertion depth. Once in position, the cannula was secured to the skull with screws and dental cement. Animals were housed individually and hand-gentled for 6 days of postsurgical recovery. Histologic verification of cannula placement was accomplished by ICV injection of 4 μL cresyl violet after completion of behavioral testing. Animals for which cannulas were improperly placed were removed from the study.
The Morris water maze consisted of a 183-cm diameter, 64-cm deep tank with a clear circular platform (16-cm diameter) placed 30 cm from the maze wall and submerged 1 cm below the surface of the 26.7 °C water. The maze was virtually divided into 4 equal quadrants with the platform centered in 1 quadrant. Eight visual cues were randomly placed on the maze wall and these cues remained consistent throughout the trials.
Animals received either fosgo-AM (1 mg/kg in DMSO) or volume-matched vehicle (DMSO) by subcutaneous (SC) injection 45 min before testing, followed by ICV injection of scopolamine hydrobromide (105 nmol in 4 μL artificial cerebrospinal fluid [aCSF] over a duration of 40 s) 20 min before testing. […]
Probe trials were conducted on day 9 to determine learning persistence. […] The percentage of trial time spent within the platform region, the number of times that the animal crossed into the platform region, and the average distance from the center of the platform region were recorded. The swimming patterns of the rats were recorded using video tracking software (MediaRecorder and EthoVision software, Noldus, VA, USA).
The daily escape latency (defined as the mean latency to find the platform each day) was calculated for each animal. […] Data collected during the probe trials were assessed for normality (Shapiro–Wilk) and homoscedasticity (Brown-Forsythe) and subsequently analyzed using one-way ANOVA with Bonferroni post hoc tests compared with scopolamine + vehicle controls. […]

[2] = probe trial day 9, vs scopolamine + vehicle

Structure (SMILES): CCCCCC(=O)N[C@@H](Cc1ccc(O)cc1)C(=O)N[C@H](C(=O)NCCCCCC(N)=O)[C@@H](C)CC [fosgo-AM] (Hexanoyl-Tyr-Ile-[Ahx]-NH2)
- pERK levels (ERK (Thr202/Tyr204)): significant increase
- escape latency ([1]; 8-day acquisition, scopolamine ICV): reduced escape latency over time
- frequency of entering the platform zone [1, 2]: significantly improved
- mean distance from the center of the platform [1, 2]: significantly improved
- percentage of time spent in the platform zone [1, 2]: significantly improved
